US12528786B2, “Plasma kallikrein inhibitors” (Merck Sharp & Dohme LLC, priority 2020, dated 2026)

Each molecule was assayed against T1, Human plasma kallikrein (Homo sapiens, UniProt P03952) (assay: Kallikrein Assay (fluorogenic substrate hydrolysis, AFC release)). Settings: purified Human plasma kallikrein 0.5 nM; substrate Acetyl-K—P—R-AFC 100 mM; 50 mM HEPES pH 7.4.
T1 construct: yields a heavy chain (371 amino acids) and a light chain (248 amino acids); purchased Enzyme Research Laboratories
Format: biochemical
How it was run: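 Enzyme–inhibitor equilibrated before substrate dilution to ≤0.2 Km; human plasma kallikrein at 0.5 nM final, Acetyl-K-P-R-AFC substrate, HEPES pH 7.4 buffer with NaCl, CaCl2, PEG 8000, at room temperature or 37° C. Linear-phase fluorescence rate gives percent inhibition, four-parameter logistic IC50, then Cheng-Prusoff Ki.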

T1 sequence (P03952 391-638 limits assumed): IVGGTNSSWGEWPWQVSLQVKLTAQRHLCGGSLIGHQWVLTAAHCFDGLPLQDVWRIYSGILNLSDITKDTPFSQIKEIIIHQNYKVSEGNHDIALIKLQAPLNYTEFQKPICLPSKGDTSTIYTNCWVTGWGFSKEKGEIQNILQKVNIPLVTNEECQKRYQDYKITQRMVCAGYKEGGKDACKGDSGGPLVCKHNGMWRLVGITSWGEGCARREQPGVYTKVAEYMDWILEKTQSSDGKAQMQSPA
T1 sequence (P03952 20-390 partner limits assumed): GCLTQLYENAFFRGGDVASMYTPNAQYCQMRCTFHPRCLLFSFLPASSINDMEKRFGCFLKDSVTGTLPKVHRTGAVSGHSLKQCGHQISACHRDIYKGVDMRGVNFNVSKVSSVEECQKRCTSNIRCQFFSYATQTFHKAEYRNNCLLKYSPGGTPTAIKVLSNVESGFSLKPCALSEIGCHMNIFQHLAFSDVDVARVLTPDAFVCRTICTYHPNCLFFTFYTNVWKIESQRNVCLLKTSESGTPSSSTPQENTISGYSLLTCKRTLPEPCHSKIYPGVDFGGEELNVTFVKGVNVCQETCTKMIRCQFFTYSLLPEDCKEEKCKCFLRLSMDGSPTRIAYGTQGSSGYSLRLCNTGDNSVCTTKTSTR

| SMILES | IC50 [nM] |
| --- | --- |
| Cc1ccc(C#N)c([C@H]2C[C@@H](NC(=O)c3cn(C(C)c4cnc(N5C[C@H]6C[C@H]6C5=O)cc4C)nn3)C2)c1 (single isomer, unassigned) [Example 67, N-((cis)-3-(2-cyano-5-methylphenyl)cyclobutyl)-1-((S or R)-1-(4-methyl-6-((1R,5S)-2-oxo-3-azabicyclo[3.1.0]hexan-3-yl)pyridin-3-yl)ethyl)-1H-1,2,3-triazole-4-carboxamide] | 1.7 |
| Cc1ccc(C#N)c([C@H]2C[C@@H](NC(=O)c3cn(C(C)c4cnc(N5C[C@H]6C[C@H]6C5=O)cc4C)nn3)C2)n1 (single isomer, unassigned) [Example 68, N-((cis)-3-(3-cyano-6-methylpyridin-2-yl)cyclobutyl)-1-((R or S)-1-(4-methyl-6-((1R,5S)-2-oxo-3-azabicyclo[3.1.0]hexan-3-yl)pyridin-3-yl)ethyl)-1H-1,2,3-triazole-4-carboxamide] | 1.9 |
| Cc1cc(N2C[C@H]3C[C@H]3C2=O)ncc1C(C)n1cc(C(=O)N[C@H]2C[C@@H](c3cc(Cl)ccc3OC(F)F)C2)nn1 (single isomer, unassigned) [Example 69, N-((cis)-3-(5-chloro-2-(difluoromethoxy)phenyl)cyclobutyl)-1-((R or S)-1-(4-methyl-6-((1R,5S)-2-oxo-3-azabicyclo[3.1.0]hexan-3-yl)pyridin-3-yl)ethyl)-1H-1,2,3-triazole-4-carboxamide] | 2790 |
| Cc1cc(N2C[C@H]3C[C@H]3C2=O)ncc1C(C)n1cc(C(=O)N[C@H]2C[C@@H](c3cc(Cl)ccc3OC(F)F)C2)nn1 (single isomer, unassigned) [Example 70, N-((cis)-3-(5-chloro-2-(difluoromethoxy)phenyl)cyclobutyl)-1-((S or R)-1-(4-methyl-6-((1R,5S)-2-oxo-3-azabicyclo[3.1.0]hexan-3-yl)pyridin-3-yl)ethyl)-1H-1,2,3-triazole-4-carboxamide] | 14.6 |
| Cc1cc(N2C[C@H]3C[C@H]3C2=O)ncc1C(C)n1cc(C(=O)N[C@H]2C[C@@H](c3cc(Cl)ccc3C(F)F)C2)nn1 (single isomer, unassigned) [Example 71, N-((cis)-3-(5-chloro-2-(difluoromethyl)phenyl)cyclobutyl)-1-((R or S)-1-(4-methyl-6-((1R,5S)-2-oxo-3-azabicyclo[3.1.0]hexan-3-yl)pyridin-3-yl)ethyl)-1H-1,2,3-triazole-4-carboxamide] | 12.7 |
| Cc1cc(N2C[C@H]3C[C@H]3C2=O)ncc1C(C)n1cc(C(=O)N[C@H]2C[C@@H](c3cc(Cl)ccc3C(F)F)C2)nn1 (single isomer, unassigned) [Example 72, N-((cis)-3-(5-chloro-2-(difluoromethyl)phenyl)cyclobutyl)-1-((S or R)-1-(4-methyl-6-((1R,5S)-2-oxo-3-azabicyclo[3.1.0]hexan-3-yl)pyridin-3-yl)ethyl)-1H-1,2,3-triazole-4-carboxamide] | 10000 |
| Cc1cc(N2C[C@H]3C[C@H]3C2=O)ncc1C(C)n1cc(C(=O)N[C@H]2C[C@@H](c3cc(Cl)ccn3)C2)nn1 (single isomer, unassigned) [Example 73, N-((cis)-3-(4-chloropyridin-2-yl)cyclobutyl)-1-((R or S)-1-(4-methyl-6-((1R,5S)-2-oxo-3-azabicyclo[3.1.0]hexan-3-yl)pyridin-3-yl)ethyl)-1H-1,2,3-triazole-4-carboxamide] | 107 |
| Cc1cc(N2C[C@H]3C[C@H]3C2=O)ncc1C(C)n1cc(C(=O)N[C@H]2C[C@@H](c3cc(Cl)ccn3)C2)nn1 (single isomer, unassigned) [Example 74, N-((cis)-3-(4-chloropyridin-2-yl)cyclobutyl)-1-((S or R)-1-(4-methyl-6-((1R,5S)-2-oxo-3-azabicyclo[3.1.0]hexan-3-yl)pyridin-3-yl)ethyl)-1H-1,2,3-triazole-4-carboxamide] | 3.9 |
| Cc1cc(N2C[C@H]3C[C@H]3C2=O)ncc1C(C)n1cc(C(=O)N[C@H]2C[C@@](F)(c3cc(Cl)ccc3C#N)C2)nn1 (single isomer, unassigned) [Example 75, N-(cis)-3-(5-chloro-2-cyanophenyl)-3-fluorocyclobutyl)-1-((R or S)-1-(4-methyl-6-((1R,5S)-2-oxo-3-azabicyclo[3.1.0]hexan-3-yl)pyridin-3-yl)ethyl)-1H-1,2,3-triazole-4-carboxamide] | 0.2 |
| Cc1cc(N2C[C@H]3C[C@H]3C2=O)ncc1C(C)n1cc(C(=O)N[C@H]2C[C@@](F)(c3cc(Cl)ccc3C#N)C2)nn1 (single isomer, unassigned) [Example 76, N-(cis)-3-(5-chloro-2-cyanophenyl)-3-fluorocyclobutyl)-1-((S or R)-1-(4-methyl-6-((1R,5S)-2-oxo-3-azabicyclo[3.1.0]hexan-3-yl)pyridin-3-yl)ethyl)-1H-1,2,3-triazole-4-carboxamide] | 15.7 |
| C[C@H](c1cnc(N2C[C@H]3C[C@H]3C2=O)nc1)n1cc(C(=O)N[C@H]2C[C@@H](c3cc(Cl)ccc3C#N)C2)nn1 (single isomer, unassigned) [Example 77] | 8.1 |
| CC(c1cnc(N2C[C@H]3C[C@H]3C2=O)nc1)n1cc(C(=O)N[C@H]2C[C@@H](c3cc(Cl)ccc3C#N)C2)nn1 (single isomer, unassigned) [Example 78] | 41.5 |
| Cc1nc(N2C[C@H]3C[C@H]3C2=O)ncc1C(C)n1cc(C(=O)N[C@H]2C[C@@H](c3cc(Cl)ccc3C#N)C2)nn1 (single isomer, unassigned) [Example 80, N-((cis)-3-(5-chloro-2-cyanophenyl)cyclobutyl)-1-((R or S)-1-(4-methyl-2-((1R,5S)-2-oxo-3-azabicyclo[3.1.0]hexan-3-yl)pyrimidin-5-yl)ethyl)-1H-1,2,3-triazole-4-carboxamide] | 105 |
| Cc1nc(N2C[C@H]3C[C@H]3C2=O)ncc1C(C)n1cc(C(=O)N[C@H]2C[C@@H](c3cc(Cl)ccc3C#N)C2)nn1 (single isomer, unassigned) [Example 81, N-((cis)-3-(5-chloro-2-cyanophenyl)cyclobutyl)-1-((S or R)-1-(4-methyl-2-((1R,5S)-2-oxo-3-azabicyclo[3.1.0]hexan-3-yl)pyrimidin-5-yl)ethyl)-1H-1,2,3-triazole-4-carboxamide] | 1.9 |
| Cc1nc(N2C[C@H]3C[C@H]3C2=O)ncc1C(C)n1cc(C(=O)NC2CC(C)(c3cc(Cl)ccc3C#N)C2)nn1 (single isomer, unassigned) [Example 82, N-((cis)-3-(5-chloro-2-cyanophenyl)-3-methylcyclobutyl)-1-((R or S)-1-(4-methyl-2-((1R,5S)-2-oxo-3-azabicyclo[3.1.0]hexan-3-yl)pyrimidin-5-yl)ethyl)-1H-1,2,3-triazole-4-carboxamide] | 0.6 |
| Cc1nc(N2C[C@H]3C[C@H]3C2=O)ncc1C(C)n1cc(C(=O)NC2CC(C)(c3cc(Cl)ccc3C#N)C2)nn1 (single isomer, unassigned) [Example 83, N-((cis)-3-(5-chloro-2-cyanophenyl)-3-methylcyclobutyl)-1-((S or R)-1-(4-methyl-2-((1R,5S)-2-oxo-3-azabicyclo[3.1.0]hexan-3-yl)pyrimidin-5-yl)ethyl)-1H-1,2,3-triazole-4-carboxamide] | 39.5 |
| Cc1nc([C@@H](C)n2cc(C(=O)N[C@H]3C[C@@H](c4cc(Cl)ccc4C#N)C3)nn2)cnc1N1C[C@H]2CC2C1=O (single isomer, unassigned) [Example 84] | 1.6 |
| Cc1nc(C(C)n2cc(C(=O)N[C@H]3C[C@@H](c4cc(Cl)ccc4C#N)C3)nn2)cnc1N1C[C@H]2CC2C1=O (single isomer, unassigned) [Example 85] | 0.9 |
| Cc1c(C(C)n2cc(C(=O)N[C@H]3C[C@@H](c4cc(Cl)ccc4C#N)C3)nn2)cnc(N2C[C@H]3C[C@H]3C2=O)c1C (single isomer, unassigned) [Example 86, N-((cis)-3-(5-chloro-2-cyanophenyl)cyclobutyl)-1-((R or S)-1-(4,5-dimethyl-6-((1R,5S)-2-oxo-3-azabicyclo[3.1.0]hexan-3-yl)pyridin-3-yl)ethyl)-1H-1,2,3-triazole-4-carboxamide] | 1.1 |
| Cc1c(C(C)n2cc(C(=O)N[C@H]3C[C@@H](c4cc(Cl)ccc4C#N)C3)nn2)cnc(N2C[C@H]3C[C@H]3C2=O)c1C (single isomer, unassigned) [Example 87, N-((cis)-3-(5-chloro-2-cyanophenyl)cyclobutyl)-1-((S or R)-1-(4,5-dimethyl-6-((1R,5S)-2-oxo-3-azabicyclo[3.1.0]hexan-3-yl)pyridin-3-yl)ethyl)-1H-1,2,3-triazole-4-carboxamide] | 0.5 |
| COc1cc(N2C[C@H]3C[C@H]3C2=O)ncc1C(C)n1cc(C(=O)N[C@H]2C[C@@H](c3cc(Cl)ccc3C#N)C2)nn1 (single isomer, unassigned) [Example 88, N-((cis)-3-(5-chloro-2-cyanophenyl)cyclobutyl)-1-((R or S)-1-(4-methoxy-6-((1R,5S)-2-oxo-3-azabicyclo[3.1.0]hexan-3-yl)pyridin-3-yl)ethyl)-1H-1,2,3-triazole-4-carboxamide] | 11.3 |
| COc1cc(N2C[C@H]3C[C@H]3C2=O)ncc1C(C)n1cc(C(=O)N[C@H]2C[C@@H](c3cc(Cl)ccc3C#N)C2)nn1 (single isomer, unassigned) [Example 89, N-((cis)-3-(5-chloro-2-cyanophenyl)cyclobutyl)-1-((S or R)-1-(4-methoxy-6-((1R,5S)-2-oxo-3-azabicyclo[3.1.0]hexan-3-yl)pyridin-3-yl)ethyl)-1H-1,2,3-triazole-4-carboxamide] | 1.1 |
| Cc1cc(N2C[C@H]3C[C@H]3C2=O)cnc1C(C)n1cc(C(=O)N[C@H]2C[C@@H](c3cc(Cl)ccc3C#N)C2)nn1 (single isomer, unassigned) [Example 90, N-((cis)-3-(5-chloro-2-cyanophenyl)cyclobutyl)-1-((R or S)-1-(3-methyl-5-((1R,5S)-2-oxo-3-azabicyclo[3.1.0]hexan-3-yl)pyridin-2-yl)ethyl)-1H-1,2,3-triazole-4-carboxamide] | 153 |
